Data from patent publication US20080274987A1, “Novel alpha glucosidase activator, pulicarside 1” (HEJ Research Institute, priority 2006, published 2008).
Read-outs that look alike come from different tables or passages of the source.

Columns and labels:
α-glucosidase = experiment: Rate of α-glucosidase enzyme reaction as a function of incubation time and concentration of Compound 1; type: biochemical, Saccharomyces species
Experimental: (§1) α-Glucosidase (E.C.3.2.1.20) enzyme inhibition assay was performed according to the slightly modified method of Matsui et al. α-glucosidase (E.C.3.2.1.20) from Saccharomyces species, purchased from Wako Pure Chemical Industries Ltd. (Wako 076-02841). The enzyme inhibition was measured spectrophotometrically at pH 6.9 and at 37° C. using 0.7 mM p nitrophenyl-α-D-glucopyranoside (PNP-G) as a substrate and 500 m units/mL enzyme, in 50 mM sodium phosphate buffer containing 100 mM NaCl. […] The increment in absorption at 400 nm, due to the hydrolysis of PNP-G by α-glucosidase, was monitored continuously on microplate spectrophotometer (Spectra Max Molecular Devices, USA).
Several unique observations were made during the studies conducted on Compound 1 activity. For example, it was observed that the enzyme generally looses its activity during the operational period. We have a set of experiment to see how the enzyme lost its activity with almost all activity gone within one hour. (Table 2).
As a result we conclude that the activity of Compound 1 is concentration dependent. The mechanism postulated here includes enhancement of stability of the enzyme to react with the substrate, which is not observed in negative control in the absence of this compound 1. From the structures it is clearly evidenced that the methylene-dioxy ring and as well as the sugar molecule is responsible for the enzyme activation. […] So the COO— group is playing a crucial role for the inhibitory effect on the enzyme and the gugar molecule and methylene-dioxy ring is responsible for the activation of the enzyme.

[1] = molecular target: α-glucosidase (E.C.3.2.1.20); experiment: α-Glucosidase enzyme inhibition assay (PNP-G substrate, spectrophotometric); type: biochemical, Saccharomyces species
Experimental: as §1
[T. Matsui, C. Yoshimoto, K. Osajima, T. Oki, and Y. Osajima. Biosci. Biotech. Biochem., 1996, 60, 2019].

[2] = against α-glucosidase, pH 6.9, 37° C., 0.7 mM PNP-G, read-out: IC50 ± SEM
[3] = unit inferred, read-out: IC50 (inhibitory effect on the enzyme)

| Rate of enzyme reaction (μM of alpha-glucose from the p-nitrophenyl at 400 nm) (α-glucosidase; 0.05 mM Compound 1, incubation 4 min) [µM] | Rate of enzyme reaction (μM of alpha-glucose from the p-nitrophenyl at 400 nm) (α-glucosidase; 0.05 mM Compound 1, incubation 24 min) [µM] | Rate of enzyme reaction (μM of alpha-glucose from the p-nitrophenyl at 400 nm) (α-glucosidase; 0.05 mM Compound 1, incubation 45 min) [µM] | Rate of enzyme reaction (μM of alpha-glucose from the p-nitrophenyl at 400 nm) (α-glucosidase; 0.05 mM Compound 1, incubation 66 min) [µM] | Rate of enzyme reaction (μM of alpha-glucose from the p-nitrophenyl at 400 nm) (α-glucosidase; 0.10 mM Compound 1, incubation 4 min) [µM] | Rate of enzyme reaction (μM of alpha-glucose from the p-nitrophenyl at 400 nm) (α-glucosidase; 0.10 mM Compound 1, incubation 24 min) [µM] | Rate of enzyme reaction (μM of alpha-glucose from the p-nitrophenyl at 400 nm) (α-glucosidase; 0.10 mM Compound 1, incubation 45 min) [µM] | Rate of enzyme reaction (μM of alpha-glucose from the p-nitrophenyl at 400 nm) (α-glucosidase; 0.10 mM Compound 1, incubation 66 min) [µM] | Rate of enzyme reaction (μM of alpha-glucose from the p-nitrophenyl at 400 nm) (α-glucosidase; 0.20 mM Compound 1, incubation 4 min) [µM] | Rate of enzyme reaction (μM of alpha-glucose from the p-nitrophenyl at 400 nm) (α-glucosidase; 0.20 mM Compound 1, incubation 24 min) [µM] | Rate of enzyme reaction (μM of alpha-glucose from the p-nitrophenyl at 400 nm) (α-glucosidase; 0.20 mM Compound 1, incubation 45 min) [µM] | Rate of enzyme reaction (μM of alpha-glucose from the p-nitrophenyl at 400 nm) (α-glucosidase; 0.20 mM Compound 1, incubation 66 min) [µM] | Rate of enzyme reaction (μM of alpha-glucose from the p-nitrophenyl at 400 nm) (α-glucosidase; 0.40 mM Compound 1, incubation 4 min) [µM] | Rate of enzyme reaction (μM of alpha-glucose from the p-nitrophenyl at 400 nm) (α-glucosidase; 0.40 mM Compound 1, incubation 24 min) [µM] | Rate of enzyme reaction (μM of alpha-glucose from the p-nitrophenyl at 400 nm) (α-glucosidase; 0.40 mM Compound 1, incubation 45 min) [µM] | Rate of enzyme reaction (μM of alpha-glucose from the p-nitrophenyl at 400 nm) (α-glucosidase; 0.40 mM Compound 1, incubation 66 min) [µM] | Effect on α-glucosidase enzymatic activity as compared to the negative control (α-glucosidase; at all the concentrations and time intervals) | IC50 ± SEM ([1]; against α-glucosidase, pH 6.9, 37° C., 0.7 mM PNP-G) | IC50 [1, 2] [µM] | IC50 [1, 3] [µM] | SMILES |
| --- | --- | --- | --- | --- | --- | --- | --- | --- | --- | --- | --- | --- | --- | --- | --- | --- | --- | --- | --- | --- |
| 18.61 | 8.7 | 3.85 | 1.45 | 19.94 | 10.38 | 4.64 | 1.62 | 20.89 | 18.27 | 13.11 | 10.13 | 21.15 | 19.68 | 14.8 | 15.01 | enhanced the enzymatic activity | Enhancer |  |  | CC1(C)OCC2(C[C@@]34CC[C@H]5[C@@](C)(CCC[C@@]5(C)C(=O)O[C@@H]5O[C@H](CO)[C@@H](O)[C@H](O)[C@H]5O)[C@@H]3CC[C@@H]2C4)O1 (single isomer, unassigned; ent-16) [Pulicarside (1), β-D-glucopyranosyl ent-16,17-acetonyl-(−)-kauran-19-oate] |
|  |  |  |  |  |  |  |  |  |  |  |  |  |  |  |  |  |  | 62.2 | 62.2 ± 0.008 | C[C@@]12CCC[C@@](C)(C(=O)O)[C@H]1CC[C@@]13C[C@@H](CC[C@H]12)[C@@](O)(CO)C3 (single isomer, unassigned; ent-16) [ent-16,17-dihydroxy-(−)-kauran-19-oic acid] |
|  |  |  |  |  |  |  |  |  |  |  |  |  |  |  |  |  |  | 407 ± 20 | 407 ± 20 | C[C@@]12CCC[C@@](C)(C(=O)O[C@@H]3O[C@H](CO)[C@@H](O)[C@H](O)[C@H]3O)[C@H]1CC[C@@]13C[C@@H](CC[C@H]12)[C@@](O)(CO)C3 [Paniculoside IV (2), paniculoside IV] |
